# Measurements reported in paper PMC5371824, “Phosphatidylinositol (4,5)-bisphosphate dynamically regulates the K2P background K^+ channel TASK-2” (Scientific Reports, 2017).
# Where a chain is given by its changes, count along the chain named.
# Key:
# [1] = test system: TASK-2-R438C; assay: Excised inside-out patch recording, TASK-2-R438C mutant; assay type: biochemical, Mus musculus; set-up: key to MTSET effect: ✓ under “MTSET effect” indicates a significant increase in current after treatment with the methanesulfonate reagent; — in all cases stands for no significant effect
# Description: Mus musculus TASK-2 (GenBank accession No. AF319542) plasmid was that obtained from mouse kidney. The cDNAs was subcloned into the pCR3.1 vector. Mutations were made by site-directed mutagenesis into the pCR3.1 vector as previously described[69] and confirmed by sequencing. HEK-293 cells were cultured in Dulbecco’s modified Eagle’s medium (DMEM) and F12 Ham’s medium at a 1:1 ratio and supplemented with 10% fetal calf serum at 37 °C in 5% CO2. For electrophysiological experiments, transient transfections were performed by electroporation, using CD8 cotransfection to identify effectively transfected cells. […] Experiments were performed 4–8 h after electroporation. In experiments with the voltage-sensitive phosphatase TASK-2 or its mutants were co-electroporated with a pCR3.1-DrVSP-IRES-CD8 vector.
# Recordings in the inside-out isolated patch configuration were performed in the gap-free mode at −60 mV. The inside aspect of the patch was bathed with a solution containing in mM: 10 KCl, 10 Glucose, 1 MgCl2, 10 EGTA, 1 Na3ATP, 0.1 GTP, 6.8 g/100 ml Sucrose, 10 Hepes/Tris, pH 7.4. The pipette contained in mM: 140 KCl, 10 Glucose, 6.8 g/100 ml Sucrose, 10 Hepes/Tris pH 7.4. For isolated patches, borosilicate capillaries (Harvard Apparatus GC150F-10 1.5 ODx0.86 ID) were fire polished to 4–5 MΩ and covered in beeswax. Acquisition was at 10 kHz with filter at 3 kHz (4-pole Bessel) and analysis was done with Clampfit 9.0 (Axon Instruments, Foster City, CA, USA). Traces shown are prints from crude Clampfit screen shots and quantification was done using the average currents were calculated at intervals using Clampfit after baseline adjustment.
# Fig. S7. Concentration ependence for the inhibition of TASK-2 mutant R438C by
# intracellular neomycin. Recording were obtained from excised inside-out patches of
# membrane taken from a HEK-293 cells over-expressing TASK-2-R438C. The patches were
# held at -60 mV in the presence of 1 mM intracellular ATP. Neomycin was increased
# stepwise from 5 to 500 µM in the solution bathing the intracellular aspect of the membrane. […]
# [2] = molecular target: T1, TASK-2 (Mus musculus, UniProt F6V9U5); assay: Excised inside-out patch recording from HEK-293 cells over-expressing TASK-2; assay type: biochemical; conditions: 1 mM, inside-out patch
# T1 construct: expressed in transfected cells; host or cells: HEK-293
# T1 sequence (F6V9U5 1-502): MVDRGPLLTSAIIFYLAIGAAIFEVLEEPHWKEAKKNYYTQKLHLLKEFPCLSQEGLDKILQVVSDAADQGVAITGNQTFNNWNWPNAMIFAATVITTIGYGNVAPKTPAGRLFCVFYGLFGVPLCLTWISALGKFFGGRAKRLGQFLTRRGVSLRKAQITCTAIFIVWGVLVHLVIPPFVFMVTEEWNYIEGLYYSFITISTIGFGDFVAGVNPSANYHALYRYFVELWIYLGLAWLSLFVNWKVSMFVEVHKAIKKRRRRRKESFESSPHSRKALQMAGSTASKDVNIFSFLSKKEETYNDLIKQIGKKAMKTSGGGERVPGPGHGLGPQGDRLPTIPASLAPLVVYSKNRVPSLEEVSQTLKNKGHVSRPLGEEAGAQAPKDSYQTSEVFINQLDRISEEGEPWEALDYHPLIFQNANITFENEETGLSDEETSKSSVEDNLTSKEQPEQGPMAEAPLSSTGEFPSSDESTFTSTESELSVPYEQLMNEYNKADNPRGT
# [3] = molecular target: T2, TASK-2-R4C (Mus musculus, UniProt F6V9U5, R4C); assay: Excised inside-out patch recording, TASK-2-R4C mutant; assay type: biochemical; set-up: key to MTSET effect: ✓ under “MTSET effect” indicates a significant increase in current after treatment with the methanesulfonate reagent; — in all cases stands for no significant effect
# T2 construct: expressed in transfected cells; host or cells: HEK-293
# T2 sequence (F6V9U5 1-502 R4C): T1 sequence (F6V9U5 1-502) with R4C
# Description: Figure 6 Scanning of potential sites of interaction of TASK-2 with PI(4,5)P2 by cysteine mutagenesis of intracellular basic residues. (A) Schematic representation of TASK-2 topology showing the sequences of segments of the protein predicted to be intracellular or intracellular-facing. Basic residues are highlighted in red. (B) Recording from an excised inside-out patch of membrane taken from a HEK-293 cell over-expressing TASK-2. The patch was held at −60 mV in the presence of 1 mM ATP. At the intervals indicated by the boxes the intracellular aspect of the membrane was exposed to 300 μM Neomycin and then to 100 μM TPeA. At the end of the TPeA period the patch was additionally exposed to 1 mM MTSET as shown by the black box. (C and D) experiments as in (B), but with inside-out membrane patches obtained from cells expressing the mutants TASK-2-H327C and TASK-2-K297C respectively. In D the reducing agent DTT was also added at 2 mM. (E) Summary of experiments comparing the current before and after treatment with MTSET. […]
# Recordings in the inside-out isolated patch configuration were performed in the gap-free mode at −60 mV. […] Traces shown are prints from crude Clampfit screen shots and quantification was done using the average currents were calculated at intervals using Clampfit after baseline adjustment.
# [4] = 1 mM, in the presence of TPeA, inside-out patch
smiles,measurement,setting,value
"C[N+](C)(C)CCSS(C)(=O)=O.[Cl-] [MTSET, [2-(trimethylammonium)ethyl] methanethiosulfonate chloride]",Effect of MTSET on TASK-2-R438C activity,[1]; [4],not affected
same,MTSET effect,[1]; mutation R438C,—
same,Effect of MTSET on WT TASK-2 channel activity,[2]; brief intracellular exposure in the presence of TPeA,Neither WT nor H327C channel activity is affected
same,Effect of MTSET on WT TASK-2 activity,"[2]; without TPeA, 1 mM ATP, Fig. S4",markedly reduced
same,Effect of MTSET on TASK-2-R4C activity,[3]; [4],not affected
same,MTSET effect,[3]; mutation R4C,—
